Source: patent publication US10112954B2, “Bicyclic heteroaryl derivatives having inhibitory activity for protein kinase” (HANMI PHARM. CO., LTD., priority 2010, dated 2018)

Columns and labels:
FGFR3 = biological target: T1, FGFR3 (Homo sapiens, UniProt P22607); assay: Inhibition of FGFR3 kinase (fluorescence polarization kinase assay); format: biochemical; conditions: Table 2, class symbols; read-out: FGFR3 IC50
T1 construct: purchased Upstate Company
Description: (§1) Inhibition activities of kinases of the inventive compounds (test compounds) prepared in the Examples were assessed and represented as IC50 values.
(§2) Kinases used in Test Examples 1 to 3 were purchased from Upstate Company.
(§3) 100 mM HEPES (pH 7.4), 25 mM MgCl2, 10 mM MnCl2 and 250 μM Na3VO4 were mixed to prepare a kinase buffer. Each of kinases to be measured was diluted to a concentration of 25˜300 ng per one reaction according to its activity with the kinase buffer. Also, each of the test compounds was serially diluted to a concentration starting from 100 nM up to 0.1 nM with the kinase buffer. 10 μl of the serially diluted solution of each of the test compounds and 10 μl of the diluted kinase were added to each well of a 96-well microplate, and the plate was incubated at room temperature for 10 mins. 10 μl of a substrate and 10 μl of ATP were successively added thereto to initiate a kinase reaction, and the resulting mixture was incubated at room temperature for 1 hour. The ATP was used in a form of a solution diluted to a concentration determined according to a kinase's Km value with distilled water. 10˜100 ng/mL poly(Glu, Tyr) 4:1 (Sigma) was used as the substrate. 10 μl of 6 mM EDTA was added to each well and stirred for 5 mins to terminate the kinase reaction. For a measurement of phosphorylation degree, 50 μl of a solution containing anti-phosphotyrosine antibody and fluorescein-labeled phosphopeptide was added to the reaction mixture, followed by incubating for 30 mins. The FP (fluorescence polarization) value of each well was determined with a Victor™ D fluorescence meter (Perkin Elmer Lifesciences).
(§4) IC50, the concentration at which 50% inhibition occurs, was evaluated based on the difference between the final concentration of the test cells and the initial concentration of the cells incubated in a well not-treated with the test compound which was regarded as 100%. IC50 values of the test compounds on the FGFR kinase were shown in Table 2, and those of the test compound obtained in Example 177 on various kinases, in Table 3.

FGFR1 = biological target: T2, FGFR1 (Homo sapiens, UniProt P11362); assay: Inhibition of FGFR1 kinase (fluorescence polarization kinase assay); format: biochemical; conditions: Table 2, class symbols; read-out: FGFR1 IC50
T2 construct: purchased Upstate Company
Description: as §1, §2, §3, §4

T2 sequence (P11362 22-822, species assumed): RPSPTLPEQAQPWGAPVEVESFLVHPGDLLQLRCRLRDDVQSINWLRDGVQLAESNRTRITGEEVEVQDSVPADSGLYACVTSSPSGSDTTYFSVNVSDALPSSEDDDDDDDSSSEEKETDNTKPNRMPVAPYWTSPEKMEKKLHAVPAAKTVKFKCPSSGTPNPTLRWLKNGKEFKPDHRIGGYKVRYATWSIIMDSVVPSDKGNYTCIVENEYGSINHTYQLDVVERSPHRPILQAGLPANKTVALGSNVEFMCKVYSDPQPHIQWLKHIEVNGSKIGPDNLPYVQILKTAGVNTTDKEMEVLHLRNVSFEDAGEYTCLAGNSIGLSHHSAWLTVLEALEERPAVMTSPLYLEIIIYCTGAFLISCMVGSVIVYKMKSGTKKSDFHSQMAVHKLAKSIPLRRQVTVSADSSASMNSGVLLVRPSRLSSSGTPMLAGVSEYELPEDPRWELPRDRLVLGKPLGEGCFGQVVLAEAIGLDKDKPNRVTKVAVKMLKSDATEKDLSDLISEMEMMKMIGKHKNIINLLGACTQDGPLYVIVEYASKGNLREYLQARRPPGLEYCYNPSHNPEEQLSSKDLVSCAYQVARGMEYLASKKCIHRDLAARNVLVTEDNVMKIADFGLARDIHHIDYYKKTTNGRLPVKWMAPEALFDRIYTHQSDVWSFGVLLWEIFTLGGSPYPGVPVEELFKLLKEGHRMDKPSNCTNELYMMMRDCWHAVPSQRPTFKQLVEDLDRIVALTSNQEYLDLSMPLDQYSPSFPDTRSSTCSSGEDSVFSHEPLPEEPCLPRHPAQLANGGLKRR
T1 sequence (P22607 23-806, species assumed): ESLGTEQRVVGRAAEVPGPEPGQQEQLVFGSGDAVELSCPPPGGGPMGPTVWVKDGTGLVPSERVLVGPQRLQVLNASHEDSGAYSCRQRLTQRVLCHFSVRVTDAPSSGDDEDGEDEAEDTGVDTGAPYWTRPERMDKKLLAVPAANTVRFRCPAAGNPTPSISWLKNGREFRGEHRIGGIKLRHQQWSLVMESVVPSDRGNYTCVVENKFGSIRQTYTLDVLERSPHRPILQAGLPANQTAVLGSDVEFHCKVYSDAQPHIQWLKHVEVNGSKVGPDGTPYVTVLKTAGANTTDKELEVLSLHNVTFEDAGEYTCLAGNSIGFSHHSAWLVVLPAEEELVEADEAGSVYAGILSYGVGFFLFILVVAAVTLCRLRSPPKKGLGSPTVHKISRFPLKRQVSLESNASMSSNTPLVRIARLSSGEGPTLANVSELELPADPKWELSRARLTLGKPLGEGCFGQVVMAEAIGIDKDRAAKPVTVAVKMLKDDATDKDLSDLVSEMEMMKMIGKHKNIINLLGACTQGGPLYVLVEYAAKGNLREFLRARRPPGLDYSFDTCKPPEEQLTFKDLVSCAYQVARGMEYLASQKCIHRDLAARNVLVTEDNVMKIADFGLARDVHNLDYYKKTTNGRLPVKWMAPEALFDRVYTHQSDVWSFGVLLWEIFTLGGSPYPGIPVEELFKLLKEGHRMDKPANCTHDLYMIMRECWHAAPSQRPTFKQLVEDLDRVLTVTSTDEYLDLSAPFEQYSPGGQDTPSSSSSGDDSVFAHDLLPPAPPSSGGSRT

Structure (SMILES)	IC50 (FGFR3) [nM]	IC50 (FGFR1) [nM]
COc1cc(OC)c(Cl)c(NC(=O)c2csc3c(Nc4ccc(N5CCC(N6CCCC6)CC5)cc4)ncnc23)c1Cl [Example 202, N-(2,6-dichloro-3,5-dimethoxyphenyl)-4-(4-(4-(pyrrolidin-1-yl)piperidin-1-yl)phenylamino) thieno[3,2-d]pyrimidine-7-carboxamide]	1 to 100	100 to 500
COc1cc(O)c(Cl)c(NC(=O)c2csc3c(N)ncnc23)c1Cl [Example 217, 4-Amino-N-(2,6-dichloro-3-hydroxy-5-methoxyphenyl)thieno[3,2-d]pyrimidine-7-carboxamide]	100 to 500	1 to 100
COc1cc(OC)c(Cl)c(NC(=O)c2csc3c(Nc4ccc5cn[nH]c5c4)ncnc23)c1Cl [Example 229, 4-(1H-indazol-6-ylamino)-N-(2,6-dichloro-3,5-dimethoxyphenyl) thieno[3,2-d]pyrimidine-7-carboxamide]	500 to 1000	1 to 100
COc1cc(OC)c(Cl)c(NC(=O)c2csc3c(Nc4ccc(CN5CCOCC5)cn4)ncnc23)c1Cl [Example 247, N-(2,6-dichloro-3,5-dimethoxyphenyl)-4-(5-(morpholinomethyl)pyridin-2-ylamino)thieno[3,2-d]pyrimidine-7-carboxamide]	1 to 100	1 to 100
COc1cc(OC)c(Cl)c(NC(=O)c2csc3c(Nc4nc5ccc(C)cc5s4)ncnc23)c1Cl [Example 225, N-(2,6-dichloro-3,5-dimethoxyphenyl)-4-(6-methylbenzo[d]thiazol-2-ylamino)thieno[3,2-d]pyrimidine-7-carboxamide]	500 to 1000	500 to 1000
CCOC(=O)NC(=S)Nc1ncnc2c(C(=O)Nc3c(Cl)c(OC)cc(OC)c3Cl)csc12 [Example 216, N-(2,6-dichloro-3,5-dimethoxyphenyl)-4-(3-(ethoxycarbonyl)thioureido)thieno[3,2-d]pyrimidine-7-carboxamide]	500 to 1000	100 to 500
CCN1CCN(Cc2ccc(Nc3ncnc4c(C(=O)Nc5c(Cl)c(OC)cc(OC)c5Cl)csc34)nc2)CC1 [Example 179, N-(2,6-dichloro-3,5-dimethoxyphenyl)-4-(5-((4-ethylpiperazin-1-yl)methyl)pyridin-2-ylamino)thieno[3,2-d]pyrimidine-7-carboxamide]	1 to 100	1 to 100
COc1cc(OC)c(Cl)c(NC(=O)c2csc3c(Nc4cc(C)ccn4)ncnc23)c1Cl [Example 270, N-(2,6-dichloro-3,5-dimethoxyphenyl)-4-(4-methylpyridin-2-ylamino)thieno[3,2-d]pyrimidine-7-carboxamide]	1 to 100	–
CCOC(=O)CNc1ncnc2c(C(=O)Nc3c(Cl)c(OC)cc(OC)c3Cl)csc12 [Example 302, ethyl 2-(7-(2,6-dichloro-3,5-dimethoxyphenyl-carbamoyl)thieno[3,2-d]pyrimidin-4-ylamino)acetate]	1000 to 5000	1000 to 5000
CCN1CCN(CCCNc2ncnc3c(C(=O)Nc4c(Cl)c(OC)cc(OC)c4Cl)csc23)CC1 [Example 171, N-(2,6-dichloro-3,5-dimethoxyphenyl)-4-(3-(4-ethylpiperazin-1-yl)propylamino) thieno[3,2-d]pyrimidine-7-carboxamide]	1000 to 5000	–
COc1cc(OC)c(Cl)c(NC(=O)c2csc3c(Nc4ccc(C(=O)N5CCOCC5)cn4)ncnc23)c1Cl [Example 255, N-(2,6-dichloro-3,5-dimethoxyphenyl)-4-(5-(morpholine-4-carbonyl)pyridin-2-ylamino)thieno[3,2-d]pyrimidine-7-carboxamide]	1 to 100	–
COc1cc(OC)c(Cl)c(NC(=O)c2csc3c(NCCNc4ccccc4)ncnc23)c1Cl [Example 304, N-(2,6-dichloro-3,5-dimethoxyphenyl)-4-(2-(phenylamino)ethyl-amino)thieno[3,2-d]pyrimidine-7-carboxamide]	1000 to 5000	1000 to 5000
CCN(CC)Cc1cccc(Nc2ncnc3c(C(=O)Nc4c(Cl)c(OC)cc(OC)c4Cl)csc23)n1 [Example 273, N-(2,6-dichloro-3,5-dimethoxyphenyl)-4-(6-((diethylamino)methyl)pyridin-2-ylamino)thieno[3,2-d]pyrimidine-7-carboxamide]	1000 to 5000	–
COc1cc(NC(=O)c2csc3c(N)ncnc23)c2ccoc2c1 [Example 113]	1000 to 5000	–
CCN1CCN(c2cccc(Nc3ncnc4c(C(=O)Nc5c(Cl)c(OC)cc(OC)c5Cl)csc34)c2)CC1 [Example 201, N-(2,6-dichloro-3,5-dimethoxyphenyl)-4-(3-(4-ethylpiperazin-1-yl)phenylamino) thieno[3,2-d]pyrimidine-7-carboxamide]	100 to 500	100 to 500
COc1cc(OC)c(Cl)c(NC(=O)c2csc3c(Nc4ccc(C(=O)NN5CCN(C)CC5)cn4)ncnc23)c1Cl [Example 268, N-(2,6-dichloro-3,5-dimethoxyphenyl)-4-(5-(4-methylpiperazin-1-ylcarbamoyl)pyridin-2-ylamino)thieno[3,2-d]pyrimidine-7-carboxamide]	1 to 100	–
CCN(CC)CCOc1ccc(Nc2ncnc3c(C(=O)Nc4c(Cl)c(OC)cc(OC)c4Cl)csc23)cc1 [Example 196, N-(2,6-dichloro-3,5-dimethoxyphenyl)-4-(4-(2-(diethylamino)ethoxy)phenylamino) thieno[3,2-d]pyrimidine-7-carboxamide]	500 to 1000	100 to 500
COc1cc(OC)c(Cl)c(NC(=O)c2csc3c(NS(C)(=O)=O)ncnc23)c1Cl [Example 206, N-(2,6-dichloro-3,5-dimethoxyphenyl)-4-(methylsulfonamido) thieno[3,2-d]pyrimidine-7-carboxamide]	1000 to 5000	–
COc1cc(OC)c(Cl)c(NC(=O)c2csc3c(Nc4ccc(CN5CCCC(C(F)(F)F)C5)cn4)ncnc23)c1Cl (stereo not shown) [Example 259, N-(2,6-dichloro-3,5-dimethoxyphenyl)-4-(5-((3-(trifluoromethyl)piperidin-1-yl)methyl)pyridin-2-ylamino)thieno[3,2-d]pyrimidine-7-carboxamide]	1000 to 5000	–
CCN1CCN(c2cc(Nc3ncnc4c(C(=O)Nc5c(Cl)c(OC)cc(OC)c5Cl)csc34)ncn2)CC1 [Example 182, N-(2,6-dichloro-3,5-dimethoxyphenyl)-4-(6-(4-ethylpiperazin-1-yl)pyrimidin-4-ylamino)thieno[3,2-d]pyrimidine-7-carboxamide]	1 to 100	–
COc1cc(OC)c(Cl)c(NC(=O)c2csc3c(Nc4ccc(NC(=O)CN(C)C)cn4)ncnc23)c1Cl [Example 299, N-(2,6-dichloro-3,5-dimethoxyphenyl)-4-(5-(2-(dimethylamino)acetamido)pyridin-2-ylamino)thieno[3,2-d]pyrimidine-7-carboxamide]	1 to 100	1 to 100
CCN(CC)C(=O)Cc1ccnc(Nc2ncnc3c(C(=O)Nc4c(Cl)c(OC)cc(OC)c4Cl)csc23)c1 [Example 292, N-(2,6-dichloro-3,5-dimethoxyphenyl)-4-(4-(2-(diethylamino)-2-oxoethyl)pyridin-2-ylamino)thieno[3,2-d]pyrimidine-7-carboxamide]	1 to 100	–
